Laboratory results taken from patent US6610710B2, “Phenylalanine derivatives” (Ajinomoto Co., Inc., priority 1999, dated 2003).

Biological target: T1, integrin α4β7 (RPMI-8866 cells) binding with recombinant human VCAM-1 (Homo sapiens, UniProt P13612+P26010)
T1 construct: lymphoma cell strain RPMI-8866 of human B cells, known to express integrin α4β7; endogenous in cells; host or cells: RPMI-8866 (human B-cell lymphoma line)
T1 sequence (P13612 34-1032): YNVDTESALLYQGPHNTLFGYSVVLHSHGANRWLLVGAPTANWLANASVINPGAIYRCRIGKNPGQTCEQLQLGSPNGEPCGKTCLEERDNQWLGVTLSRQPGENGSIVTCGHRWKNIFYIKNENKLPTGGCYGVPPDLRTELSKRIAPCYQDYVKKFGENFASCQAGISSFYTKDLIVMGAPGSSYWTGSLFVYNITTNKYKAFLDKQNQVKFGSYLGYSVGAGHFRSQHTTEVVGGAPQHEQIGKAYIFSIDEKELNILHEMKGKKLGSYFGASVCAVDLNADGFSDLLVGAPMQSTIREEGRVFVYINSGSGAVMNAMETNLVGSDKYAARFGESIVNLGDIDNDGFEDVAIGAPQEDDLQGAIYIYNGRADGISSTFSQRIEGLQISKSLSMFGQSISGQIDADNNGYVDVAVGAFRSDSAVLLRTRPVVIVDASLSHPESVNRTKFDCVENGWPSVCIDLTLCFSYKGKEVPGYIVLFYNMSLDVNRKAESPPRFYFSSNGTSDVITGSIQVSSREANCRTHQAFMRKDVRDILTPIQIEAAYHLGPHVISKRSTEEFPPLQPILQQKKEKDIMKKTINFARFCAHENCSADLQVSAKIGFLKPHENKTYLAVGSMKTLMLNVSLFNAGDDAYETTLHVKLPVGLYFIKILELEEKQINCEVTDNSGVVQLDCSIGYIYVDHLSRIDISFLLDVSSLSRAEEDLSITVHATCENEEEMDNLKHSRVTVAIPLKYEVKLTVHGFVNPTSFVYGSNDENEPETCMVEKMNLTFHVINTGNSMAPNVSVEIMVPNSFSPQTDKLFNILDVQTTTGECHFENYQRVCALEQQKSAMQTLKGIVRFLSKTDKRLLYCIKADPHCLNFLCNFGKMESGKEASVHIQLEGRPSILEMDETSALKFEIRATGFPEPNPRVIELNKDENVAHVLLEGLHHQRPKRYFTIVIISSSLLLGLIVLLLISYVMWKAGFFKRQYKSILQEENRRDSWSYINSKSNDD
T1 sequence (P26010 20-798): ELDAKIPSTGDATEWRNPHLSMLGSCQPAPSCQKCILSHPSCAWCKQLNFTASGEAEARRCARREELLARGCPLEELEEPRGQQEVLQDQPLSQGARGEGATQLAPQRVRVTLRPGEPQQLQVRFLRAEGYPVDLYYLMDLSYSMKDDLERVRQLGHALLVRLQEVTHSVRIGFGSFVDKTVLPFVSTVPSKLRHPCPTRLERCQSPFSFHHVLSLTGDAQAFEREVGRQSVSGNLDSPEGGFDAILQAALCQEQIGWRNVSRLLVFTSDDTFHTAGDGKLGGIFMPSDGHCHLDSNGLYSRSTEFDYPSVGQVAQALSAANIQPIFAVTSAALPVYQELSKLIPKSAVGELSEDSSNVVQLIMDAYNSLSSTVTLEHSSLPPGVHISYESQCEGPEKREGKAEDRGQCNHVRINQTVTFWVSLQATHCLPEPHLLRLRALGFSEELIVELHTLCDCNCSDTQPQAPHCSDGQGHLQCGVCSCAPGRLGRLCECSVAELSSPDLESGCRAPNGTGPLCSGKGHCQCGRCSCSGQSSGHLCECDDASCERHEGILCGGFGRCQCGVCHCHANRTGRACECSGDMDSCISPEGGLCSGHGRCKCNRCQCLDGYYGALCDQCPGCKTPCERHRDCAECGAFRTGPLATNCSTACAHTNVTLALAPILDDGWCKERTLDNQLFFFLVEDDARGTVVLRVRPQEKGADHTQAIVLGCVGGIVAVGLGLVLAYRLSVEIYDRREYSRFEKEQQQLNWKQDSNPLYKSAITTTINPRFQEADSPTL
Experiment: VCAM antagonistic activity (VCAM-1/α4β7 binding assay), RPMI-8866 cell adhesion
Type: cell-based
Conditions: recombinant human VCAM-1, 4 mM MnCl2, read-out: VCAM/α 4 β 7 antagonistic activity to integrin (IC50)
Description: (Test Example) VCAM Antagonistic Activity (VCAM-1/α4β7 Binding Assay):
The capacity of a test substance antagonistic to the binding of lymphoma cell strain RPMI-8866 of human B cells, known to express integrin α4β7, with VCAM-1 was determined.
100 μl/well of a solution (500 ng/ml ) of recombinant human VCAM-1 (R & D systems) diluted with buffer A (0.1 M NaHCO3, pwH 9.6) was added to a micro titer plate having 96 wells (Nunc Maxisorp). After the incubation at 4° C. overnight, unbound VCAM-1 was removed by once washing with PBS. After completion of the washing, a buffer (buffer B) obtained by diluting Block Ace® (Dainippon Pharmaceutical Co., Ltd.) with PBS to 1/4 concentration was added in an amount of 150 μl/well. After the incubation at room temperature for 1 hour, buffer B was removed and the plate was washed with PBS once.
RPMI-8866 cells were incubated in Dulbecco modified Eagle medium containing 10 μg/ml of Calcein-AM (Wako Pure Chemical Industries, Ltd.) (SIGMA, hereinafter referred to as “DMEM”) at 37° C. for 30 minutes to label them with fluorescence. The cells were again suspended in a binding buffer (DMEM containing 20 mM HEPES, 0.1% BSA) containing 4 mM of MnCl2.
50 μl of a test substance of various concentrations obtained by the dilution with the binding buffer was added to the plate. Immediately thereafter, 50 μl (final volume: 100 μl/well) of the fluorescent RPMI-8866 cells (4×10^6 cells/ml) were added thereto, and they were incubated at room temperature for 30 minutes. After the shaking on a plate shaker (IKA MTS-4) at 800 rpm for 30 seconds, the solution was immediately removed to remove the unbound cells. The fluorescence quantity of the bound cells remaining in the wells was determined with a fluorescent plate reader (Wallac 1420 ARVO multi-label counter) (filter excitation wave length: 485 nml, emission wave length: 535 nm). The fluorescent strength thus obtained is proportional to the number of RPMI-8866 cells bound to VCAM-1 and remaining on the plate. The binding rate of each test material in various concentrations was determined while the fluorescent strength of the test material-free well was determined to be 100%. The concentration IC50 for the 50% binding inhibition was calculated.

IC50	Compound
≤ 200 nM	O=C(O)[C@H](Cc1ccc(OCc2c(Cl)cccc2Cl)cc1)NC(=O)[C@H]1CC[C@H](C(=O)O)CC1 [Example 2, N-(Trans-4-carboxycyclohexane-1-carbonyl)-O-(2,6-dichlorobenzyl)-L-tyrosine]
≤ 200 nM	O=C(O)[C@H](Cc1ccc(OCc2c(Cl)cccc2Cl)cc1)NC(=O)[C@H]1CC[C@H](C(=O)NNc2ccccc2)CC1 [Example 3, N-(Trans-4-phenylhydrazinocarbonylcyclohexane-1-carbonyl)-O-(2,6-dichlorobenzyl)-L-tyrosine]
200 to 1000 nM	O=C(O)[C@H](Cc1ccc(OCc2c(Cl)cccc2Cl)cc1)NC(=O)[C@H]1CC[C@H](C(=O)NNc2ccc(Br)cc2)CC1 [Example 4, N-[Trans-4-(4-bromophenylhydrazinocarbonyl)cyclohexane-1-carbonyl]-O-(2,6-dichlorobenzyl)-L-tyrosine]
1000 to 5000 nM	O=C(O)[C@H](Cc1ccc(OCc2c(Cl)cccc2Cl)cc1)NC(=O)[C@H]1CC[C@H](C(=O)NCc2ccccc2)CC1 [Example 6]
≤ 200 nM	COc1ccc(NNC(=O)[C@H]2CC[C@H](C(=O)N[C@@H](Cc3ccc(OCc4c(Cl)cccc4Cl)cc3)C(=O)O)CC2)cc1 [Example 14]
≤ 200 nM	Cc1ccc(NNC(=O)[C@H]2CC[C@H](C(=O)N[C@@H](Cc3ccc(OCc4c(Cl)cccc4Cl)cc3)C(=O)O)CC2)cc1 [Example 34]
≤ 200 nM	O=C(O)[C@H](Cc1ccc(OCc2c(Cl)cccc2Cl)cc1)NC(=O)[C@H]1CC[C@H](C(=O)NNc2ccc(OC(F)(F)F)cc2)CC1 [Example 35]
≤ 200 nM	COc1cccc(NNC(=O)[C@H]2CC[C@H](C(=O)N[C@@H](Cc3ccc(OCc4c(Cl)cccc4Cl)cc3)C(=O)O)CC2)c1 [Example 44]
≤ 200 nM	O=C(Nc1ccc(C[C@H](NC(=O)[C@H]2CC[C@H](C(=O)O)CC2)C(=O)O)cc1)c1snnc1-c1ccccc1 [Example 45, N-(Trans-4-carboxycyclohexane-1-carbonyl)-4-{[(4-phenyl-1,2,3-thiadiazole-5-yl)carbonyl]amino}-L-phenylalanine]
≤ 200 nM	COc1ccc(NNC(=O)[C@H]2CC[C@H](C(=O)N[C@@H](Cc3ccc(NC(=O)c4snnc4-c4ccccc4)cc3)C(=O)O)CC2)cc1 [Example 46, N-[Trans-4-(4-methoxyphenylhydrazinocarbonyl)cyclohexane-1-carbonyl]-4-{[(4-phenyl-1,2,3-thiadiazole-5-yl)carbonyl]amino}-L-phenyl-alanine]
≤ 200 nM	COc1cccc(OC)c1-c1ccc(C[C@H](NC(=O)[C@H]2CC[C@H](C(=O)O)CC2)C(=O)O)cc1 [Example 50, N-(Trans-4-carboxycyclohexane-1-carbonyl)-4-(2,6-dimethoxyphenyl)-L-phenylalanine]
≤ 200 nM	COc1ccc(NNC(=O)[C@H]2CC[C@H](C(=O)N[C@@H](Cc3ccc(-c4c(OC)cccc4OC)cc3)C(=O)O)CC2)cc1 [Example 51, N-[Trans-4-(4-methoxyphenylhydrazinocarbonyl)cyclohexane-1-carbonyl]-4-(2,6-dimethoxyphenyl)-L-phenylalanine]
